# From patent publication US11484032B2, “Compositions for inhibition of insect sensing” (Vanderbilt University, priority 2011, dated 2022)
# Read-outs that look alike come from different tables or passages of the source.
# How the values were obtained:
# AgORco+AgOR48 = molecular target: T1, AgORco+AgOR48 (Anopheles gambiae, UniProt Q7QCC7); test: Ca2+ imaging, HEK cells expressing AgORco+AgOR48; assay type: cell-based; conditions: for Orco + 48 Agonist % value Of VUAA1: relative to VUAA1
# T1 construct: expressed in transfected cells
# T1 sequence (Q7QCC7 1-478): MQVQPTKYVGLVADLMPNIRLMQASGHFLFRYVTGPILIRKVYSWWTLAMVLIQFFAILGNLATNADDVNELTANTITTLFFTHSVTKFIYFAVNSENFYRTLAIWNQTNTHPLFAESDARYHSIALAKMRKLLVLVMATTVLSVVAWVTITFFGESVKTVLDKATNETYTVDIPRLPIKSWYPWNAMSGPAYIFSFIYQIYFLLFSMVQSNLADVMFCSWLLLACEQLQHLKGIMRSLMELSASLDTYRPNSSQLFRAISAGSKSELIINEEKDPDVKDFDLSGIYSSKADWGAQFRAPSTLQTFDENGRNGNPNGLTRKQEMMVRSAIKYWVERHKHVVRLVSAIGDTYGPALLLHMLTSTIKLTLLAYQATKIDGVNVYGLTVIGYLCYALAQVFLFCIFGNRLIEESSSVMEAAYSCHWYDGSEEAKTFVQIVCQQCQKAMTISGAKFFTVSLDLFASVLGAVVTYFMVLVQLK
# Excerpt: (§1) For transient transfections, ORs were cloned into pCl (Promega) and transfected into Flp-In™ T-REx™293 cell lines (Invitrogen) with Fu GENE6 (Roche). For the creation of stable cell lines, a cell culture expression vector capable of expressing Orco in conjunction with a conventional OR, pcDNA5/FRT/TO (Invitrogen) was modified to create two individual expression cassettes each under the control of a separate CMV/Tet02 promoter and a BGH poly-adenylation signal. Cells (as above) were transfected with the modified pcDNA5 plasmid along with POG44 (a Flp recombinase expression plasmid) to facilitate site-specific recombination. Stable cell lines were selected using Hygromycin B (Invitrogen). Cells were maintained in DMEM (Invitrogen) supplemented with 10% Tetracycline-free FBS (HyClone) and 15 ng/ml Blasticidin. For fluorometric Ca2+ measurements, stable lines expressing ORs of interest were seeded at 20,000 cells/well in black wall, poly-lysine coated 384-well cell culture plates (Greiner) and treated with […] tetracycline (Sigma) overnight to induce OR expression. Cells were dye-loaded with 1.8 uM Fluo-4 AM (Molecular Probes), 2.5 mM Probenecid (Molecular Probes) in assay buffer (20 mM HEPES, IX HBSS) for 45 minutes at 37° C. in 5% CO2 prior to each assay. Ca^2+ mobilization was assayed in an FDSS6000 (Hamamatsu). Baseline readings were taken for 20 s before automated addition of compound previously diluted in DMSO and assay buffer. Ratios were described as Maximum/Minimum response and each response was normalized to the maximum responder.
# The ability of VUAA1 and its analogs to agonize representative ORco proteins from dipteran (Anopheles gambiae, AgORco), lepidopteran (Heliothis virescens, HvORco) and hymenopteran (Harpegnathos saltator, HsORco) orders was tested. […] Furthermore, the hierarchy of VUAA series potency was the same, irrespective of whether AgORco was co-expressed with AgOR65 or AgOR48 tuning ORs (FIG. 45). Without wishing to be bound by a particular theory, odorant ligands are thought to activate the complex via interaction with the tuning ORx and thereby affect ORco/ORx channel properties. […] These findings indicate VUAA-class OR co-modulators are viable compounds for further development as broad-spectrum insect control strategies, and VUAA4 can provide an advance in the pharmacological profile of VUAA-based compounds.
# Orco (AgORco) = molecular target: T2, Orco (AgORco) (Anopheles gambiae, UniProt Q7QCC7); test: Fluo-4 Ca2+ imaging, HEK293 cells expressing Orco alone; assay type: cell-based; conditions: for Orco Agonist % value Of VUAA1 / Orco Agonist EC50 (relative to VUAA1) / EC50: Orco alone; for Orco Agonist % value Of VUAA1: relative to VUAA1; for Orco Agonist EC50 (relative to VUAA1): stated in words relative to VUAA1; for Emax: HEK293, read-out: Orco Agonist % value Of VUAA1
# T2 construct: expressed in transfected cells
# T2 sequence (Q7QCC7 1-478): T1 sequence (Q7QCC7 1-478)
# Excerpt: as §1
# [1] = test system: An. gambiae early 4th instar larvae; test: Larval mosquito movement assay (Daniovision-Ethovision); assay type: in vivo, Anopheles gambiae; conditions: for larval behavioral (movement) response: compared with DMSO controls or VUAA1
# Procedure: Next, the agonist activity of the VUAA compound class was tested to establish the involvement of AgORs in mediating larval ortho and klinokinesis in response to a series of semiochemicals using larval-stage An. gambiae mosquitoes. Mosquito larvae are aquatic, thus compounds can be delivered to individual early 4th instar larvae regardless of volatility. The assay currently utilizes 6-well plates and the Daniovision-Ethovision platform (Noldus Inc.) to simultaneously record and analyze 6 larvae, thereby providing modest rates of throughput and a high degree of reproducibility. In these assays, larval movements are automatically quantified over 5-minute period and control larvae consistently move the same number of times in the presence or absence of 0.1% DMSO (p=0.80, n=31) (FIGS. 42-43). Furthermore, the effects of the widely-used synthetic insect repellent N, N-diethyl-meta-toluamide (DEET) was tested and DEET was also observed to increase larval movements at and above a threshold concentration of 5×10^−4M (p=0.013, n=27) (FIGS. 42-43).
# AgOrco+AgOR65 = molecular target: T3, AgOrco+AgOR65 (Anopheles gambiae, UniProt Q7QCC7); test: Ca2+ imaging, HEK cells expressing AgOrco+AgOR65; assay type: cell-based
# T3 construct: expressed in transfected cells
# T3 sequence (Q7QCC7 1-478): T1 sequence (Q7QCC7 1-478)
# Excerpt: as §1
# For VUAA0, a single methyl from the para position of the aniline ring (compound VUAA0, FIG. 44) in the VUAA1 structure was removed. […] In VUAA0.5, unsaturation was introduced at the para position of the aniline ring (VUAA0.5, FIG. 44). […] In VUAA2, the ethyl group of the aniline ring in VUAA1 was replaced with an isopropyl group (VUAA2, FIG. 44).
# AgORco+AgOR10 = molecular target: T4, AgORco+AgOR10 (Anopheles gambiae, UniProt Q7QCC7); test: Fluo-4 Ca2+ imaging, HEK293 cells expressing Orco+AgOR10; assay type: cell-based; set-up: Orco 10 + Orco Angatonist % Reduction / Orco 10 + Orco Agonist % of control: concentration or dose not given beside the values; conditions: 10 + Orco, agonist mode; for Orco 10 + Orco Agonist, compared with VUAA1: qualitative, relative to VUAA1
# T4 construct: expressed in transfected cells
# T4 sequence (Q7QCC7 1-478): T1 sequence (Q7QCC7 1-478)
# Excerpt: as §1
# As part of an ongoing, cell based calcium imaging screen for novel small-molecule modulators of AgORs that might disrupt olfactory-driven mosquito behaviors (Rinker et al manuscript in preparation), the inventors identified a number of compounds that activated AgOR10+AgORco-expressing human embryonic kidney (HEK293) cells. One of these compounds, (FIG. 3 A) denoted here as VUAA1, elicited activity consistent with allosteric agonism and was pursued for its novel properties. The identity of VUAA1 was verified using high-resolution mass spectrometry (HRMS) as well as ^1H and ^13C NMR. […] As AgORco was the common element among these functional responses, the inventors postulated that VUAA1 was a potential AgORco agonist.
# [2] = heteromeric OR channels AgOrco+AgOR65, read-out: EC50
# [3] = Orco + 65, read-out: Orco + 65 Agonist EC50
# [4] = Orco + 48, read-out: Orco + 48 Agonist EC50
compound,measurement,setting,value
O=C(CSc1nnc(-c2ccncc2)n1C1CC1)Nc1ccc(Br)cc1F,Orco + 48 Agonist % value Of VUAA1,"AgORco+AgOR48; Orco + 48, agonist",<VUAA1
same,Orco + 48 Agonist EC50 (relative to VUAA1),"AgORco+AgOR48; Orco + 48, agonist, stated in words relative to VUAA1",<VUAA1
CCn1c(SCC(=O)Nc2ccc(C(C)C)cc2)nnc1-c1ccn(C)n1,Orco Agonist % value Of VUAA1,Orco (AgORco); agonist,<VUAA1
same,Orco Agonist EC50 (relative to VUAA1),Orco (AgORco); agonist,<VUAA1
CCn1c(SCC(=O)Nc2ccc(C(C)C)cc2)nnc1-c1cc[nH]n1,Orco Agonist % value Of VUAA1,Orco (AgORco); agonist,<VUAA1
same,Orco Agonist EC50 (relative to VUAA1),Orco (AgORco); agonist,<VUAA1
"CCCCCCC1CCCC(=O)O1 [D-undecalactone, reference compound]",EC50,"AgORco+AgOR48; AgORco co-expressed with AgOR48, read-out: EC50",0.26 µM
"CCN(CC)C(=O)c1cccc(C)c1 [DEET, N, N-diethyl-meta-toluamide, reference compound]",threshold concentration for increased larval movement,[1]; movements over 5-minute period,500 µM
"CCn1c(SCC(=O)Nc2ccc(C)cc2)nnc1-c1cccnc1 [VUAA0, 2-((4-ethyl-5-(pyridin-3-yl)-4H-1,2,4-triazol-3-yl)thio)-N-(p-tolyl)acetamide]",EC50,AgOrco+AgOR65; [2],3400 µM
same,larval behavioral (movement) response,[1],lower
"C=Cc1ccc(NC(=O)CSc2nnc(-c3cccnc3)n2CC)cc1 [VUAA0.5, 2-((4-ethyl-5-(pyridin-3-yl)-4H-1,2,4-triazol-3-yl)thio)-N-(4-vinylphenyl)acetamide]",EC50,AgOrco+AgOR65; [2],110 µM
same,larval behavioral (movement) response,[1],comparable to DMSO controls
"CCn1c(SCC(=O)Nc2ccc(C(C)C)cc2)nnc1-c1cccnc1 [VUAA2, 2-((4-ethyl-5-(pyridin-3-yl)-4H-1,2,4-triazol-3-yl)thio)-N-(4-isopropylphenyl)acetamide]",EC50,AgOrco+AgOR65; [2],9.2 µM
same,larval behavioral (movement) response,[1],not observed to elicit larval responses greater than VUAA1
CCn1c(SCC(=O)Nc2ccc(C)cc2)nnc1-c1cccnc1 [drawing 372],EC50,Orco (AgORco); read-out: Orco Agonist EC50,262 µM
same,EC50,AgOrco+AgOR65; [3],335 µM
same,EC50,AgORco+AgOR48; [4],996 µM
CCc1ccc(NC(=O)CSc2nnc(-c3cccnc3)n2CC)cc1 [drawing 373],Emax,Orco (AgORco),100%
same,Orco 10 + Orco Agonist % of control,AgORco+AgOR10,101.8%
same,EC50,AgOrco+AgOR65; [3],47 µM
same,Orco + 65 Agonist % value Of VUAA1,"AgOrco+AgOR65; Orco + 65, relative to VUAA1",100%
same,EC50,AgORco+AgOR48; [4],14 µM
same,Orco + 48 Agonist % value Of VUAA1,AgORco+AgOR48; Orco + 48,100%
C=Cc1ccc(NC(=O)CSc2nnc(-c3cccnc3)n2CC)cc1 [drawing 376],Emax,Orco (AgORco),57%
same,EC50,Orco (AgORco); read-out: Orco Agonist EC50,102 µM
same,"Orco 10 + Orco Agonist, compared with VUAA1",AgORco+AgOR10,<VUAA1
same,EC50,AgORco+AgOR48; [4],37.4 µM
same,Orco + 48 Agonist % value Of VUAA1,AgORco+AgOR48; Orco + 48,77%
CCn1c(SCC(=O)Nc2ccc(C(C)C)cc2)nnc1-c1cccnc1 [drawing 381],Emax,Orco (AgORco),102%
same,EC50,Orco (AgORco); read-out: Orco Agonist EC50,12.9 µM
same,"Orco 10 + Orco Agonist, compared with VUAA1",AgORco+AgOR10,>VUAA1
same,EC50,AgOrco+AgOR65; [3],9.6 µM
same,EC50,AgORco+AgOR48; [4],9.9 µM
same,Orco + 48 Agonist % value Of VUAA1,AgORco+AgOR48; Orco + 48,109%
CC(C)c1ccc(NC(=O)CSc2nnc(-c3ccncc3)n2C2CC2)cc1 [drawing 634],EC50,Orco (AgORco); agonist,3.5 µM
same,EC50,"AgOrco+AgOR65; Orco + 65, agonist, read-out: Orco + 65 Agonist EC50",3.1 µM
same,EC50,"AgORco+AgOR48; Orco + 48, agonist, read-out: Orco + 48 Agonist EC50",1.9 µM
same,Orco + 48 Agonist % value Of VUAA1,"AgORco+AgOR48; Orco + 48, agonist",122%
"C=CCc1ccc(O)c(OC)c1 [eugenol, reference compound]",EC50,AgOrco+AgOR65; [2],0.5 µM
